From patent US9476099B2 (TRUSTEES OF DARTMOUTH COLLEGE, priority 2012, dated 2016)
Where “and” joins values, the source holds several entries; their conditions need not be identical. Equal entries are not always repeated.

System: NT2/D1-R1 control and DNMT3B knockdown cells
Test: Genome-wide expression analysis with PAM clusters, control and DNMT3B knockdown cells (Tables 8-14)
Settings: sh-Ctrl + aza; 10 nM decitabine, 3 days

## Nc1ncn([C@H]2C[C@H](O)[C@@H](CO)O2)c(=O)n1 [aza]
  ADAMTSL2 NM_014694 expression Mean: 295.667
  ADM NM_001124 expression Mean: 937.101
  AFMID NM_0010109 expression Mean: 303.389
  AHNAK NM_001620 expression Mean: 522.882
  ANAPC13 NM_015391 expression Mean: 549.873
  ANXA1 NM_000700 expression Mean: 1242.05
  ANXA2 NM_0010028 expression Mean: 3575.79
  AW972815 expression Mean: 1125.31
  BAG3 NM_004281 expression Mean: 1275
  BCL11A NM_022893 expression Mean: 399.892
  BIRC5 NM_001168 expression Mean: 873.507
  BTG2 NM_006763 expression Mean: 474.998
  C9orf6 NM_017832 expression Mean: 333.034
  C10orf2 NM_021830 expression Mean: 515.45
  C10orf58 NM_032333 expression Mean: 983.117
  C16orf93 NM_0010149 expression Mean: 392.581
  CA2 NM_000067 expression Mean: 678.212
  CATSPER2 NM_172097 expression Mean: 1806.2
  CAV1 NM_001753 expression Mean: 740.14
  CCND1 NM_053056 expression Mean: 4666.94
  CDKN1A NM_000389 expression Mean: 1938.97
  CDX1 NM_001804 expression Mean: 802.577
  CEACAM1 NM_0010249 expression Mean: 229.793
  CIRH1A NM_032830 expression Mean: 1971.98
  CLCF1 NM_013246 expression Mean: 340.544
  CLDN10 NM_006984 expression Mean: 407.272
  CNN3 NM_001839 expression Mean: 1086.56
  COL7A1 NM_000094 expression Mean: 1054.31
  COL17A1 NM_000494 expression Mean: 521.166
  CRABP2 NM_001878 expression Mean: 2128.79
  CRIPT NM_014171 expression Mean: 613.112
  CTNNB1 NM_0010982 expression Mean: 342.941
  CUEDC1 NM_017949 expression Mean: 525.909
  CXCL14 NM_004887 expression Mean: 366.998
  CXXC1 NM_014593 expression Mean: 1743.77
  CXorf40A NM_178124 expression Mean: 324.823
  CYR61 NM_001554 expression Mean: 634.193
  DDX51 NM_175066 expression Mean: 1671.08
  DIMT1L NM_014473 expression Mean: 893.36
  DUSP5 NM_004419 expression Mean: 1627.42
  EBI3 NM_005755 expression Mean: 650.267
  EIF2C2 NM_012154 expression Mean: 794.459
  ELF3 NM_004433 expression Mean: 306.008
  ELF4 NM_001421 expression Mean: 721.011
  EMILIN2 NM_032048 expression Mean: 650.943
  EOMES NM_005442 expression Mean: 387.137
  FAM53C NM_016605 expression Mean: 2860.96
  FAM123B NM_152424 expression Mean: 1182.82
  FLJ40504 NM_173624 expression Mean: 3003.39
  FOXO3 NM_201559 expression Mean: 639.391
  GAD1 NM_000817 expression Mean: 287.008
  GAD1 NM_013445 expression Mean: 372.485
  GALNAC4S-6 NM_015892 expression Mean: 704.001
  GEMIN4 NM_015721 expression Mean: 1411.28
  GLIPR2 NM_022343 expression Mean: 792.16
  GNL3L NM_019067 expression Mean: 392.011
  GNL3 NM_206826 expression Mean: 1332.63
  GPATCH4 NM_182679 expression Mean: 1117.44
  GPER NM_0010399 expression Mean: 305.922
  GPR56 NM_201524 expression Mean: 378.312
  GPR56 NM_201525 expression Mean: 392.608
  GPR177 NM_0010022 expression Mean: 251.287 and 391.197
  GPR177 NM_024911 expression Mean: 515.533
  GTF3C6 NM_138408 expression Mean: 503.701
  H2AFY NM_004893 expression Mean: 2387.37
  HARS NM_002109 expression Mean: 1887.22
  HCLS1 NM_005335 expression Mean: 319.822
  HES2 NM_019089 expression Mean: 310.888
  HSPA1A NM_005346 expression Mean: 699.362
  HSPA8 NM_006597 expression Mean: 3448.31
  HSPA8 NM_153201 expression Mean: 5257.42
  HSPH1 NM_006644 expression Mean: 565.151
  ID3 NM_002167 expression Mean: 3392.56
  IER3 NM_003897 expression Mean: 835.676
  IL2RB NM_000878 expression Mean: 274.617
  ITPRIP NM_033397 expression Mean: 346.452
  JTV1 NM_006303 expression Mean: 1876.43
  KAT2A NM_021078 expression Mean: 1965.54
  KIAA0101 NM_014736 expression Mean: 468.29
  KRT8 NM_002273 expression Mean: 3394.59
  LEFTY2 NM_003240 expression Mean: 1161.57
